Test results published in patent publication US5500424A, “Pyrimidine and pyridine derivatives, their production and use” (Nihon Nohyaku Co., Ltd., priority 1993, dated 1996).

Experiments:
[1] = molecular target: T1, acyl-CoA:cholesterol acyltransferase (ACAT) (Oryctolagus cuniculus, UniProt G1SFD9); assay: Inhibitory activity on acyl-CoA:cholesterol acyltransferase (ACAT); format: biochemical, white rabbit; settings: rabbit intestinal mucosa microsomes, read-out: Inhibition rate
T1 construct: The intestinal mucosa of a white rabbit was homogenized and microsomal fraction was obtained; from tissue; host or cells: white rabbit intestinal mucosa, microsomal fraction
T1 sequence (G1SFD9 1-524): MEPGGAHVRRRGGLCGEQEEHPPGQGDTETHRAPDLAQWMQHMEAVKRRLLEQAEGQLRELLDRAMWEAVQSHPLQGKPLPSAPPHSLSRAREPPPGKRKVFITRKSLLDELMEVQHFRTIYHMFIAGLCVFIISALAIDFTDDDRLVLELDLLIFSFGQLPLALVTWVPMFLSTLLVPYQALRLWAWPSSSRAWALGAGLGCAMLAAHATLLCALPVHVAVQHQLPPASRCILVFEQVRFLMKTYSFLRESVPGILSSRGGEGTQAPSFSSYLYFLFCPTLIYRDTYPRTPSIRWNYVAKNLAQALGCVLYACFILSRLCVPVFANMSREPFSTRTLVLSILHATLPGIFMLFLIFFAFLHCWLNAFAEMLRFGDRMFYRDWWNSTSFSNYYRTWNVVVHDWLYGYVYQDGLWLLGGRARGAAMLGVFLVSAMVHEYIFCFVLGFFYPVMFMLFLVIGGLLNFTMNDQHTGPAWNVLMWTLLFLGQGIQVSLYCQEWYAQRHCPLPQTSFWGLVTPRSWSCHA
Procedure: Inhibitory activity on acyl-CoA:cholesterol acyltransferase (ACAT)
The enzyme used in the test was prepared according to the method of Heider et al. [J. Lipid, Res. 24, 1127 (1983)]. The intestinal mucosa of a white rabbit was homogenized and microsomal fraction was obtained by stepwise centrifugation. The microsomal fraction was suspended in 0.154M phosphate buffer (pH 7.4) and stored at -80° C. until use.
ACAT activity was determined by a modification of the method of Helgerud et al. [J. Lipid Res. 22, 271 (1981)] by measuring radioactivity incorporated into cholesterol esters from [1-^14 C]oleyl-CoA, as an indication. As to the ACAT-inhibitory activity of each compound to be tested, the inhibition rate was calculated by the following equation. [formula]

[2] = tested on: cholesterol esterification in macrophages (J774 A.I cells); assay: Inhibitory effect on cholesterol esterification in macrophages; format: cell-based; settings: Mus musculus, AcLDL-loaded J774 A.I cells, read-out: Inhibition rate
Procedure: Inhibitory effect on cholesterol esterification in macrophages
The test was carried out by a modification of the method of Goldstein et al. [Pro. Nat. Acad. Sci. U.S.A. 71, 4288 (1974)]. J774 A.I cells, the mouse macrophage-like cell line, were suspended in Dulbecco's modified Eagle's medium (DMEM) containing 10% fetal calf serum (FCS), in a proportion of 3×10^5 cells per 2 ml and were seeded into 6-well plates. The cells were cultured under a humidified atmosphere of 95% air/5% CO2 at 37° C. for 24 hours. The medium was replaced by 1 ml of DMEM containing 10% of FCS and 50 μg/ml of acetylated human low density lipoprotein (AcLDL), followed by culturing for 16 hours. Five microliters of each compound dissolved in dimethyl sulfoxide was added to the medium, and the cells were cultured for another 2 hours. Then, [^14 C]oleate (2×10^6 dpm/well) bovine serum albumin complex was added in the medium. After 2 hours of culture, cells were collected and the cholesterol-esterifying activity was determined by measuring radioactivity incorporated into cholesterol esters in the cells. The recovery of the cholesterol esters was determined by the addition of [^3 H]cholesteryl oleate, and the esterifying activity was corrected using the recovery. As to the inhibitory activity on cholesterol esterification of the compound to be tested, the inhibition rate was calculated by the following equation. [formula] wherein A: the cholesterol-esterifying activity of AcLDL-loaded cells to which the compound to be tested was added.
B: the cholesterol-esterifying activity of AcLDL-loaded cells to which dimethyl sulfoxide was added.

[3] = tested on: hamsters fed on a high-cholesterol diet; assay: Serum cholesterol lowering activity in hamsters fed on a high-cholesterol diet; format: in vivo, Male Syrian hamsters; settings: Mesocricetus auratus, 30 mg/kg per day for 4 days, 24 hours after last administration, read-out: Reduction rate of total serum cholesterol concentration
Procedure: Serum cholesterol lowering activity in hamsters fed on a high-cholesterol diet
Male Syrian hamsters of 10-week-old were divided into three groups. The first group (normal group) was fed an ordinary diet for 4 days. The second group (control group) was fed a high cholesterol diet (containing 0.5% cholesterol and 8.0% coconut oil) for 4 days. The third group (treated group) was fed a high cholesterol diet and was treated with a compound for 4 days. Simultaneously with the beginning of the above feeding, the compound was suspended in a 0.5% carboxymethyl cellulose solution and administered to the treated group, in a dose of 30 mg (in terms of the compound) per kg of body weight per day for 4 days. A 0.5% carboxymethyl cellulose solution was also administered to the normal group and the control group in the same manner as above.
After 24 hours of the last administration, blood was collected and the cholesterol concentration in serum was measured by an enzymatic method. The reduction rate of the total serum cholesterol concentration was calculated from values obtained for the three groups by the following equation. [formula] wherein A: the serum cholesterol concentration of the control group.
B: the serum cholesterol concentration of the treated group.
C: the serum cholesterol concentration of the normal group.

SMILES	inhibition at 0.01 µM [1] [%]	inhibition at 1 µM ([1]; 1 μM) [%]	inhibition at 0.3 µM [2] [%]	inhibition in vivo at 30 mg/kg [3] [%]	inhibition at 1 µM [2] [%]
CCc1cccc(CC)c1NC(=O)Nc1cnc(N2CCCCC2)nc1-c1ccccc1Cl [Compound 55, N-[4-(2-Chlorophenyl)-2-(N-piperidino)pyrimidin-5-yl]-N'-(2,6-diethylphenyl)urea]	75.7	–	34.9	77.5	–
CC(C)c1cccc(C(C)C)c1NC(=O)Nc1cnc(-c2ccccc2)nc1-c1ccccc1 [Compound 32, N-(2,6-Diisopropylphenyl)-N'-(2,4-diphenylpyrimidin-5-yl)urea]	73.5	–	58	63.7	74.3

Second part, led by results:

inhibition at 0.01 µM [1] [%]	inhibition at 1 µM ([1]; 1 μM) [%]	SMILES	inhibition at 0.3 µM [2] [%]	inhibition in vivo at 30 mg/kg [3] [%]	inhibition at 1 µM [2] [%]
72.3	–	CCc1cccc(CC)c1NC(=O)Nc1cnc(-c2ccccc2)nc1-c1ccccc1C(F)(F)F [Compound 37, N-(2,6-Diethylphenyl)-N'-[2-phenyl-4-(2-trifluoromethylphenyl)pyrimidin-5-yl]urea]	67.1	63.3	87.2
67.6	99.5	CC(C)c1cccc(C(C)C)c1NC(=O)Nc1cnc(-c2ccccc2)nc1-c1ccccc1Cl [Compound 15, N-[4-(2-Chlorophenyl)-2-phenylpyrimidin-5-yl]-N'-(2,6-diisopropylphenyl)urea]	29.5	57.6	73.3
72.9	–	Cc1ccccc1-c1nc(-c2ccccc2)ncc1NC(=O)Nc1c(C(C)C)cccc1C(C)C [Compound 36, N-(2,6-Diisopropylphenyl)-N'-[4-(2-methylphenyl)-2-phenylpyrimidin-5-yl]urea]	51.6	63.4	–
